Data: ChEMBL document CHEMBL5233276, “Cathepsin C inhibitors as anti-inflammatory drug discovery: Challenges and opportunities” (Eur J Med Chem, 2021)
One block for each compound: values may come before it. Where a SMILES comes first, the peptide text is derived from it. The star is where a group is joined. CHN2 = [N-]=[N+]=C*

Columns and labels:
Dipeptidyl peptidase 1 [1] = target: T1, Dipeptidyl peptidase 1 (Homo sapiens, UniProt P53634); test: Inhibition of Cathepsin C (unknown origin)
Mus musculus = test: Inhibition of Cathepsin C in mouse spleen measured at 5 mg/kg ip, relative to control; assay type: organism-based
Dipeptidyl peptidase 1 [2] = target: T1, Dipeptidyl peptidase 1; test: Inhibition of human Cathepsin C using Z-Arg-Arg-AM as substrate at 3 microM relative to control
Dipeptidyl peptidase 1 [3] = target: T1, Dipeptidyl peptidase 1; test: Inhibition of human Cathepsin C using Ala-4-[ 125 I]Phe-DMK as substrate preincubated for 30 mins followed by substrate addition measured after 6 to 24 hrs
Dipeptidyl peptidase 1 [4] = target: T1, Dipeptidyl peptidase 1; test: Inhibition of human Cathepsin C using Gly-Phe-paranitroanilide as substrate incubated for 12 mins
Dipeptidyl peptidase 1 [5] = target: T1, Dipeptidyl peptidase 1; test: Inhibition of human Cathepsin C using Gly- L -Phe-p-nitroanilide.HCl as substrate
Dipeptidyl peptidase 1 [6] = target: T1, Dipeptidyl peptidase 1; test: Inhibition of human Cathepsin C using Gly-Phe-AMC as substrate assessed as kobs/[I]

T1 sequence (P53634 25-134 limits assumed): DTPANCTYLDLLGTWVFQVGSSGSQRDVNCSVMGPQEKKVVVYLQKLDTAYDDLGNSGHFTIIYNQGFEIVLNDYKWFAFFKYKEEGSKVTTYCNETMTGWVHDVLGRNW
T1 sequence (P53634 231-394 limits assumed): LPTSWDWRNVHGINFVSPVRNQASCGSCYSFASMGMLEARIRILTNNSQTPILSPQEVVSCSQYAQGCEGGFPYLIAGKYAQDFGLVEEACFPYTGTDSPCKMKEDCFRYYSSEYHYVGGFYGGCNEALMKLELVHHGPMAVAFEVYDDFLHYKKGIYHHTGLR
T1 sequence (P53634 395-463 limits assumed): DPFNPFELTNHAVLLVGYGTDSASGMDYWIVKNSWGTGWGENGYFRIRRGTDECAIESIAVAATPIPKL

IC50 (Dipeptidyl peptidase 1 [1]): 120 nM
SMILES: C=CC(=O)Nc1cc2c(Nc3ccc(F)c(Cl)c3)ncnc2cc1OCCCN1CCOCC1 [CANERTINIB]

IC50 (Dipeptidyl peptidase 1 [1]): 1 nM
SMILES: CC[C@@H](/C=C/C(=O)N1CCc2ccccc21)NC(=O)C1(N)CCOCC1

inhibition (Dipeptidyl peptidase 1 [2]): > 90%
SMILES: [N-]=[N+]=CC(=O)[C@H](Cc1ccccc1)NC(=O)CN (H-Gly-Phe-CHN2)
inhibition (Mus musculus): > 90%

IC50 (Dipeptidyl peptidase 1 [3]): 50 nM
SMILES: N#[N+][CH-]C(=O)[C@H](Cc1ccccc1)NC(=O)CN

IC50 (Dipeptidyl peptidase 1 [4]): 15 nM
SMILES: CC[C@H](N)C(=O)N[C@]1(C#N)C[C@@H]1c1ccc(-c2ccc(S(=O)(=O)N3CCN(C)CC3)cc2)cc1

IC50 (Dipeptidyl peptidase 1 [5]): 39000 nM
SMILES: CC(C)CC(NC(=O)CN)P(=O)(O)CCC(=O)O (stereo unspecified)

Ratio (Dipeptidyl peptidase 1 [6]): 2900 M⁻¹ s⁻¹ | IC50 (Dipeptidyl peptidase 1 [2]): 4900 nM
SMILES: C[C@@H](O)[C@H](N)C(=O)N[C@@H](/C=C/S(C)(=O)=O)CCC(=O)O

Ratio (Dipeptidyl peptidase 1 [6]): 2 10^6/M/s | ID50 (Dipeptidyl peptidase 1 [2]): 100 nM
SMILES: C[C@H](N)C(=O)N[C@H](/C=C/S(=O)(=O)c1ccccc1)CCc1ccccc1
